Paper PMC9820167, “Design and Synthesis of Conformationally Flexible Scaffold as Bitopic Ligands for Potent D3-Selective Antagonists” (International Journal of Molecular Sciences, 2022)

Tests used:
GABAA = assay: PDSP binding screen; conditions: HCl salts
Muscarinic M3 = Muscarinic M3 (Homo sapiens, UniProt P20309); assay: PDSP binding screen
Serotonin 5-HT1A = target: T1, Serotonin 5-HT1A (Homo sapiens, UniProt P08908); assay: PDSP binding screen
T1 sequence (P08908 1-422): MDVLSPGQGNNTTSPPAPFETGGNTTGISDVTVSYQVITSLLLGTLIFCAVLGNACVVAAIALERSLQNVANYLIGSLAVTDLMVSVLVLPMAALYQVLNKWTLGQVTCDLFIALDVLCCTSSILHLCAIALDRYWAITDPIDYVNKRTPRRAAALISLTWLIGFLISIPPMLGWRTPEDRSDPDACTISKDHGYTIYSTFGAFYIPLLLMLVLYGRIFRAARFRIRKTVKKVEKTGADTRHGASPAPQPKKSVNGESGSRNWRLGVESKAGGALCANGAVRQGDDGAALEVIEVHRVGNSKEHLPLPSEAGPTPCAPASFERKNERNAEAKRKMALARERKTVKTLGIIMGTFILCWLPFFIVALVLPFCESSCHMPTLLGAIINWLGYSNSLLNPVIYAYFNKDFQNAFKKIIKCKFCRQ

Dopamine D1 = Dopamine D1 (Homo sapiens, UniProt P21728); assay: PDSP binding screen
Chain of Dopamine D1 (P21728 whole entry): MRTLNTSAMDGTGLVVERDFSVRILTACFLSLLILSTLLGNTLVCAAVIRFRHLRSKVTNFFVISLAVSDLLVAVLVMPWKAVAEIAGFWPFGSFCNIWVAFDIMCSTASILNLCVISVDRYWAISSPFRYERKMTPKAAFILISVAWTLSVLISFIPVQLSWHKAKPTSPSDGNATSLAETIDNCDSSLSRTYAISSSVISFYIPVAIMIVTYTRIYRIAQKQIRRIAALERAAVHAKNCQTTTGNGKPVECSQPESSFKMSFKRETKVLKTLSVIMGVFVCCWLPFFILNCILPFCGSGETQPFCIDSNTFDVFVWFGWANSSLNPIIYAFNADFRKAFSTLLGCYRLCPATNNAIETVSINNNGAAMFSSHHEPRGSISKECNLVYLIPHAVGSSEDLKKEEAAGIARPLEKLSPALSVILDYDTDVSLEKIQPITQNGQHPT

Histamine H2 = Histamine H2 (Homo sapiens, UniProt P25021); assay: PDSP binding screen
Chain of Histamine H2 (P25021 whole entry): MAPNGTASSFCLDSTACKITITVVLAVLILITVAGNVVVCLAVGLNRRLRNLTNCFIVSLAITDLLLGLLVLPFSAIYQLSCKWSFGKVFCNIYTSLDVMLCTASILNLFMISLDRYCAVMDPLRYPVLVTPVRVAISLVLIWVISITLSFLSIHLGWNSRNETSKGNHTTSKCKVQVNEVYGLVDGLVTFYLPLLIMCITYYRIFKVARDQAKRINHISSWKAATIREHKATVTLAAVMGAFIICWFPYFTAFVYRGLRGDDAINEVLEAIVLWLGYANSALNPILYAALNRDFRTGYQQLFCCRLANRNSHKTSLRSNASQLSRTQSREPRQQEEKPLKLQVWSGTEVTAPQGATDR

human D3 receptors = human D3 receptors (Homo sapiens, UniProt P35462); assay: Radioligand binding assay with [125I]IABN, D3 receptor; set-up: expressed in transfected cells; host or cells: HEK293; conditions: for Ki: [125I]IABN, D3 receptors expressed in HEK cells, mean ± SEM, three experiments, HCl salts, read-out: Ki ± SEM (nM) D3; for D2/D3: selectivity ratio of Ki D2 / Ki D3 (fold)
Chain of human D3 receptors (P35462 whole entry): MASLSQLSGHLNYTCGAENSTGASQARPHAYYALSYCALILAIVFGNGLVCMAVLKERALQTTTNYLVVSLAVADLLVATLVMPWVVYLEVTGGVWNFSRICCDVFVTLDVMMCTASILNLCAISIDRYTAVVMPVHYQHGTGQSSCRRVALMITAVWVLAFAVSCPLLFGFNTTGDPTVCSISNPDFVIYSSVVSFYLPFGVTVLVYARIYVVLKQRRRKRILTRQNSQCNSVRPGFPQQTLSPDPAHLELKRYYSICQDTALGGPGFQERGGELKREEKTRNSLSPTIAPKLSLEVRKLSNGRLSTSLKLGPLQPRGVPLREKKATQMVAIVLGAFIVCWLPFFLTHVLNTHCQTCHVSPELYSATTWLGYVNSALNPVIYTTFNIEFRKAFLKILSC
Description: Two different assays were used to evaluate the properties of the analogs described above. The receptor binding affinity was measured by radioligand binding assays using [^125I]IABN with D2 or D3 receptors highly expressed HEK293 cells. The functional activity of the analogs was determined using a β-arrestin recruitment assay. The assay was initially conducted in agonist binding mode to confirm that they function as antagonists at the D3 receptor. Once this efficacy was confirmed, the assay was conducted in antagonist mode to determine the ability of the antagonist to compete with dopamine at the D3 receptor. The results of the antagonist mode assay are reported as IC50 values.
Ki values for D2 and D3 receptors were measured using [^125I]IABN in human D2 and D3 receptors expressed in HEK cells, respectively. A filtration binding assay was used to characterize membrane-associated receptor binding properties. The details for the procedures were described in the literature.

Adrenergic beta3 = Adrenergic beta3 (Homo sapiens, UniProt P13945); assay: PDSP binding screen
Chain of Adrenergic beta3 (P13945 whole entry): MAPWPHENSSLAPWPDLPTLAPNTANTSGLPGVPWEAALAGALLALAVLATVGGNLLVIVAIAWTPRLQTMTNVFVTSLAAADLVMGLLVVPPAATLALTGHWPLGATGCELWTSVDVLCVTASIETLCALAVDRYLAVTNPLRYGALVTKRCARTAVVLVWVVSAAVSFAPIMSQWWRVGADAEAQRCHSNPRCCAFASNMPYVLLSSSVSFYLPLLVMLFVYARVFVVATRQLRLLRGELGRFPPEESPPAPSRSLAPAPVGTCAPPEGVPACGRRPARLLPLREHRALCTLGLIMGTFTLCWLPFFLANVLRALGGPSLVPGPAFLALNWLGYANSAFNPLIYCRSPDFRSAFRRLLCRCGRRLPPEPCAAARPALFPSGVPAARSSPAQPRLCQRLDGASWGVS

Muscarinic M4 = target: T2, Muscarinic M4 (Homo sapiens, UniProt P08173); assay: PDSP binding screen; conditions: read-out: Ki (nM) or % inhibition at 10 µM: M4
T2 sequence (P08173 1-479): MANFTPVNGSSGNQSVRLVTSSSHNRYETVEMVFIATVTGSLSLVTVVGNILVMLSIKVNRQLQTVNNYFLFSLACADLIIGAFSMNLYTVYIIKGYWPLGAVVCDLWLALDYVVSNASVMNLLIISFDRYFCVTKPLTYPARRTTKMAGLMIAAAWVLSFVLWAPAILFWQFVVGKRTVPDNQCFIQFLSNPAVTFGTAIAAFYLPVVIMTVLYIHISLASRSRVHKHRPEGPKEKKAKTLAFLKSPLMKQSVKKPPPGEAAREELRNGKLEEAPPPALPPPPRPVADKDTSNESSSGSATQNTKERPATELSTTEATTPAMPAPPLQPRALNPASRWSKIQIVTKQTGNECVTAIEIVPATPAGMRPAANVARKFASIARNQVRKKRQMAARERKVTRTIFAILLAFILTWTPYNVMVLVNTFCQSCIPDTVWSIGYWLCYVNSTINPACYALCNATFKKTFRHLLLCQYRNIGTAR

Dopamine D2 = Dopamine D2 (Homo sapiens, UniProt P14416); assay: PDSP binding screen
Chain of Dopamine D2 (P14416 whole entry): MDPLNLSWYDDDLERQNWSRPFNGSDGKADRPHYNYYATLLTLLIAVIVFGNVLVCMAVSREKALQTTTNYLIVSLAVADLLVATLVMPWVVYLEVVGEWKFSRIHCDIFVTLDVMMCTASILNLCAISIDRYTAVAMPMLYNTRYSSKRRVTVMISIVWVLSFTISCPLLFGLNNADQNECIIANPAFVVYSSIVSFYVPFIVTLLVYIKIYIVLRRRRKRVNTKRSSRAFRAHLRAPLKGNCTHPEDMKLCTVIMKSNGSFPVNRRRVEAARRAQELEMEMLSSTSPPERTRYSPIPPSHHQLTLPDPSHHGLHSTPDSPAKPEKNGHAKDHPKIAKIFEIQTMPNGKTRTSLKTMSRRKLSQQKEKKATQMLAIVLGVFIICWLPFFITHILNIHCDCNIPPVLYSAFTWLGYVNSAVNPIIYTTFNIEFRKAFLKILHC

[1] = target: Norepinephrine transporter (NET) (Homo sapiens, UniProt P23975); assay: PDSP binding screen
Chain of Norepinephrine transporter (NET) (P23975 whole entry): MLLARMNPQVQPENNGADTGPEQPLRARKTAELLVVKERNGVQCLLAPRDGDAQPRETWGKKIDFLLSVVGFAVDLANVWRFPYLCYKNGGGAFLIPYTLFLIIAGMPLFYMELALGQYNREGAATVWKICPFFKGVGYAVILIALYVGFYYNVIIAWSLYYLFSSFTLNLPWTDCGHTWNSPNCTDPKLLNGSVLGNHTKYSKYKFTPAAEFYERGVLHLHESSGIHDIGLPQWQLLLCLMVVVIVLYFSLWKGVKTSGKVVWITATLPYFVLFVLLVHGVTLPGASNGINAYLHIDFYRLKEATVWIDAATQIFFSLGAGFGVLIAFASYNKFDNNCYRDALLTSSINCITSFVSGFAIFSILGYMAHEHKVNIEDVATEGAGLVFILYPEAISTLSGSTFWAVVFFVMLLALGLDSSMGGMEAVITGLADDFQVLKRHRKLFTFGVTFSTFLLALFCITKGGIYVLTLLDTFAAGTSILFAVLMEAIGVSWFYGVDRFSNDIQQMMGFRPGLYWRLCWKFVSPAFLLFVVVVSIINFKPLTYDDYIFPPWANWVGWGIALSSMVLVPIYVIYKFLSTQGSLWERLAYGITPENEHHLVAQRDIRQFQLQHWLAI

Serotonin 5-HT1E = target: T3, Serotonin 5-HT1E (Homo sapiens, UniProt P28566); assay: PDSP binding screen; conditions: read-out: Ki (nM) or % inhibition at 10 µM: 5-HT1E; PDSP; HCl salts
T3 construct: Psychoactive Drug Screening Program (PDSP)
T3 sequence (P28566 whole entry): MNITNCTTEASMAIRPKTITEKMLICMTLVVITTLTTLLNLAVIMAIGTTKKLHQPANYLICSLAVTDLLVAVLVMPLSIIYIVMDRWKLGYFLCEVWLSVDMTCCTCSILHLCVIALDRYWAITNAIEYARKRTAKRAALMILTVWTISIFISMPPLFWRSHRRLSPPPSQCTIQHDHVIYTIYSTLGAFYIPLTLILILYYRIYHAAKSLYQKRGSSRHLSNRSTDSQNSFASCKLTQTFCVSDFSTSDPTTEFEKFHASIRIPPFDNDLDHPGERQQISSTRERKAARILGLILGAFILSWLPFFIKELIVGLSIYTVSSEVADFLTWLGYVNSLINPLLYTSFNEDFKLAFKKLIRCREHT
Source text: (§1) Based on the results in the dopamine receptor radioligand binding assays, nine flexible-based compounds were selected for further evaluation for off-target binding with other GPCRs through the Psychoactive Drug Screening Program (PDSP) (Supplemental Table S2). […] For example, many of the N-aryl piperazine-based analogs that our group developed in the past for either the D2 or D3 receptor had high affinity for the 5-HT1A receptor [55, 56, 57, 58]. […] This mitochondrial-based protein is typically used as a target for imaging neuroinflammation. The results of the PDSP-binding assays also confirmed the data obtained in our lab for the binding of this panel of nine compounds to D2 and D3 receptors (Supplemental Table S2).

Opioid DOR = target: T4, Opioid DOR (Homo sapiens, UniProt P41143); assay: PDSP binding screen; conditions: read-out: Ki (nM) or % inhibition at 10 µM: DOR
T4 construct: Psychoactive Drug Screening Program (PDSP)
Source text: as §1

[2] = target: T5, Serotonin transporter (SERT) (Homo sapiens, UniProt P31645); assay: PDSP binding screen
T5 construct: Psychoactive Drug Screening Program (PDSP)
T5 sequence (P31645 whole entry, species assumed): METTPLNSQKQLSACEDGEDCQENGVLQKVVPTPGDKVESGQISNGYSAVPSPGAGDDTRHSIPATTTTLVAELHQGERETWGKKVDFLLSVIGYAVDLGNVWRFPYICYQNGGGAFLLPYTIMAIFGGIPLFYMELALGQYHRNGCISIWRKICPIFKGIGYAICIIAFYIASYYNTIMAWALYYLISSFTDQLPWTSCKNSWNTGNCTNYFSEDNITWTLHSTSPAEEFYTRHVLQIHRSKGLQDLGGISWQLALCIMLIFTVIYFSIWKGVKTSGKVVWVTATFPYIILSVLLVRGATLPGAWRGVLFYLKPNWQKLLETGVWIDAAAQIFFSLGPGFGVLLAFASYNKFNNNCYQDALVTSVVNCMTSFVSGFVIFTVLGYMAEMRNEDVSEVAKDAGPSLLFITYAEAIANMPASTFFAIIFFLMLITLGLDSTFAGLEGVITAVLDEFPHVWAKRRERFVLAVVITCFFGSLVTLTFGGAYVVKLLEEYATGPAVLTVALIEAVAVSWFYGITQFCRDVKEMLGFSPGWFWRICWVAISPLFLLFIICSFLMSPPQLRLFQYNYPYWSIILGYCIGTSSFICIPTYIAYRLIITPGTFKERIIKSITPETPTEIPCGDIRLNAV
Source text: as §1

Serotonin 5-HT5A = target: T6, Serotonin 5-HT5A (Homo sapiens, UniProt P47898); assay: PDSP binding screen; conditions: read-out: Ki (nM) or % inhibition at 10 µM: 5-HT5A; PDSP; HCl salts
T6 construct: Psychoactive Drug Screening Program (PDSP)
T6 sequence (P47898 whole entry): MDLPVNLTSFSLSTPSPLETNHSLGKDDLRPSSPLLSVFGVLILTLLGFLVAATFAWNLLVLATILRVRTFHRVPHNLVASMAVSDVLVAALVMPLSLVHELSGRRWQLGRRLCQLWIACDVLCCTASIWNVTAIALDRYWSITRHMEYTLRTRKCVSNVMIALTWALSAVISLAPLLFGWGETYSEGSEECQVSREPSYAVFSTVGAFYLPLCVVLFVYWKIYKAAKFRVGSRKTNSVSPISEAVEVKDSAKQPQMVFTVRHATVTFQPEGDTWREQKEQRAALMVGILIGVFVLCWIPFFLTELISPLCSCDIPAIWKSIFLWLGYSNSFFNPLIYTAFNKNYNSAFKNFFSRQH
Source text: as §1

Chain of Muscarinic M3 (P20309 whole entry): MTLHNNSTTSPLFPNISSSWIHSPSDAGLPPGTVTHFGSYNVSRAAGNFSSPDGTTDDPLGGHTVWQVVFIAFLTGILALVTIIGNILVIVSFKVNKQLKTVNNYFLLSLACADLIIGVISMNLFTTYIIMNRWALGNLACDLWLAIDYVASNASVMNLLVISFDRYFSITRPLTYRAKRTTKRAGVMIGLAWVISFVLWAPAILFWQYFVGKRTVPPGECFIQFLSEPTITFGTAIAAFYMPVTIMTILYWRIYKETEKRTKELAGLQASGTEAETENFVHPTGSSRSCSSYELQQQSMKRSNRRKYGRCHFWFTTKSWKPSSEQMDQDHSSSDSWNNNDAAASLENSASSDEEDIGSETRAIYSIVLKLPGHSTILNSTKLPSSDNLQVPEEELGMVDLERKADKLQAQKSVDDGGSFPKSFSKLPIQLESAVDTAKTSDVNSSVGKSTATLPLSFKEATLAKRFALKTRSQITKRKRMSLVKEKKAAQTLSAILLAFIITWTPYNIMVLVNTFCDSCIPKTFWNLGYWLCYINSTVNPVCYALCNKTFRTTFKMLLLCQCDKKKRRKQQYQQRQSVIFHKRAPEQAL

| Structure (SMILES) | Ki (nM) or % inhibition at 10 µM: GABAA (GABAA) | Ki (Serotonin 5-HT1A) [nM] | Ki (human D3 receptors) [nM] | D2/D3 (human D3 receptors) | Ki (Adrenergic beta3) [nM] | inhibition at 10 µM (Muscarinic M4) [%] | inhibition at 10 µM (Serotonin 5-HT1E) [%] | inhibition at 10 µM (Opioid DOR) [%] | inhibition at 10 µM (Serotonin 5-HT5A) [%] | further results |
| --- | --- | --- | --- | --- | --- | --- | --- | --- | --- | --- |
| CCN(CCCNC(=O)c1cn2ccccc2n1)CCNC(=O)c1cc(Br)cc(OC)c1OC [21e, N-(3-((2-(5-Bromo-2,3-dimethoxybenzamido)ethyl)(ethyl)amino)propyl)imidazo[1,2-a]pyridine-2-carboxamide] | N/A (N/A; not active means less than 50% inhibition that was obtained in primary binding assay at 10 µM of the compound) | 575 | 2.8 ± 0.5 | 50.7 | 5560 | < 50 | < 50 | < 50 | < 50 | Ki (Muscarinic M3): 1550 nM; inhibition at 10 µM (Dopamine D1; read-out: Ki (nM) or % inhibition at 10 µM: D1): < 50%; inhibition at 10 µM (Histamine H2; read-out: Ki (nM) or % inhibition at 10 µM: H2): < 50%; inhibition at 10 µM (Dopamine D2; read-out: Ki (nM) or % inhibition at 10 µM: D2): < 50%; inhibition at 10 µM ([1]; read-out: Ki (nM) or % inhibition at 10 µM: Norepinephrine transporter (NET)): < 50%; inhibition at 10 µM ([2]; read-out: Ki (nM) or % inhibition at 10 µM: Serotonin transporter (SERT)): < 50% |
| CCCN(CCCNC(=O)c1ccc(-c2cccs2)cc1)CCNC(=O)c1cc(Br)cc(OC)c1OC [20a, 5-Bromo-2,3-dimethoxy-N-(2-(propyl(3-(4-(thiophen-2-yl)benzamido)propyl)amino)ethyl)benzamide] | N/A (N/A; not active means less than 50% inhibition that was obtained in primary binding assay at 10 µM of the compound) | 194 | 2.7 ± 0.4 | 110 | 1390 | < 50 | < 50 | < 50 | < 50 | inhibition at 10 µM (Muscarinic M3; read-out: Ki (nM) or % inhibition at 10 µM: M3): < 50%; Ki (Dopamine D1): 4290 nM; Ki (Histamine H2): 1650 nM; Ki (Dopamine D2): 185 nM; Ki [1]: 3510 nM; Ki ([2]; PDSP, HCl salts): 5850 nM |
